SMILES strings stand for the structures.

The values that follow come from patent US20080033010A1, “Combination therapy of erdosteine and beta-2 agonists for treating respiratory pathologies characterized by non reversible or partially reversible airway obstruction” (EDMOND PHARMA s.r.l., priority 2006, published 2008).

In this assay the test system is newly diagnosed COPD subjects. The assay is described as follows: Test of bronchial reversibility with salbutamol (spirometry, FEV1) before and after 4 and 10 days of erdosteine therapy, double-blind against placebo. The assay is classed as in vivo, humans. The protocol: This effect has been found in a trial utilizing the test of bronchial reversibility with salbutamol before and after 4 and 10 days of therapy with erdosteine at the dose of 900 mg/day, that is the maximum dosage presently approved in humans. The standard protocol has been used: spirometry was performed before and 15-20 minutes after the administration of […] of salbutamol with a metered inhaler. For reducing the bias, the study was double-blind against placebo and the patients selected were newly diagnosed COPD subjects never treated with −2 agonists. 7 patients were treated with erdosteine and 7 with placebo in a random order. At baseline, all the patients had only a partial reversibility (mean 2.5%) of bronchial obstruction calculated with the FEV1 (the absolute values were 1.5 liters before salbutamol and 1.537 liters after salbutamol), thus fully meeting the COPD definition. When the test was repeated at Day 4 of therapy, the reversibility of bronchial obstruction in the placebo group was not different from the baseline values (mean increase of FEV1: 0.9%), while in the erdosteine group there was a significant and unexpected increase of post-salbutamol FEV1 values in all the patients (mean increase of FEV1: 7.1%).

Setting [1] is: Patient #1, after 4 days of erdosteine therapy.
[2] abbreviates: Patient #1, after 10 days of erdosteine therapy.
Setting [3] is: Patient #4, after 4 days of erdosteine therapy.
Where [4] appears, read: Patient #4, after 10 days of erdosteine therapy.
Setting [5] is: Patient #4, before therapy (baseline).
Setting [6] is: baseline, all the patients, before therapy.

With `O=C(O)CSCC(=O)NC1CCSC1=O` (centres unmarked) [erdosteine], the FEV1 post salbutamol is, setting by setting: under setting [1], 2.05; under setting [2], 2.13; (Patient #1, before therapy (baseline)) 1.81; under setting [3], 1.96; under setting [4], 1.92; under setting [5], 1.26. Also, the FEV1 pre salbutamol amounted to 1.85 under setting [1] and 1.74 under setting [3]. In addition, the “increase of FEV1 post vs pre salbutamol” value under setting [1] is recorded as “+10.8%”; the “increase of FEV1 post vs pre salbutamol” value under setting [2] is reported as “+9.4%”; the “increase of FEV1 post vs pre salbutamol” value under setting [3] is “+12.6%”; the “increase of FEV1 post vs pre salbutamol” value under setting [4] was “+13%”; the “increase of FEV1 post vs pre salbutamol” value under setting [5] is “+5.9%”. For the same compound, the FEV1 pre-salbutamol runs as follows: under setting [2], 1.93; (Patient #1, before therapy (baseline) (entry two)) 1.81; (Patient #4 (person one), before therapy (baseline)) 1.19; under setting [4], 1.69. For the same compound, the “reversal of the bronchial obstruction” value (erdosteine administered with beta agonists vs beta agonist alone) is reported as “much more evident than that obtained with the beta agonist alone”. For the same compound, the “mean increase of FEV1 (reversibility of bronchial obstruction, post-salbutamol)” value runs as follows: (erdosteine group (7 patients), Day 4 of therapy, erdosteine 900 mg/day, spirometry 15-20 minutes after salbutamol) 7.1%; (erdosteine group, final control at Day 10, erdosteine 900 mg/day) 10.3%.
For the compound `CC(C)(C)NCC(O)c1ccc(O)c(CO)c1` (centres unmarked) [salbutamol], the “partial reversibility of bronchial obstruction calculated with the FEV1 (mean)” value (baseline, all the patients, before erdosteine or placebo therapy, salbutamol alone) was 2.5%. Under setting [6], the “FEV1 absolute value after salbutamol” value came out at 1.537 L and the “FEV1 absolute value before salbutamol” value was found to be 1.5 L.
